Earlier results in US7402578B2, “Methods for inhibiting cognitive deterioration in adults with down's syndrome” (Corcept Therapeutics, Inc., priority 2001, dated 2008).

Columns and labels:
[1] = in one study (Kawai)
[2] = test system: cognitive function in DS children; settings: Lobaugh et al. 2001

fraction of the daily dose excreted in the urine [1] | SMILES | enhancement of cognitive function [2]
less than 0.5% | CC#C[C@]1(O)CC[C@H]2[C@@H]3CCC4=CC(=O)CCC4=C3[C@@H](c3ccc(N(C)C)cc3)C[C@@]21C [Mifepristone, 17-beta-hydroxy-11-beta-(4-dimethylaminophenyl)-17-alpha-(1-propynyl)-estra-4,9-dien-3-one] | 
 | NC(=O)CN1CCCC1=O [Piracetam] | failed to enhance cognitive function
